Format in all cases: functional
The subject of assay [1] is Amaranthus retroflexus. Put plainly: Herbicidal activity against Amaranthus retroflexus assessed as inhibition of weed growth at 375 g/ha using postemergence treatment protocol. The settings on record: post-emergence.
Assay [2] relates to Amaranthus retroflexus. Put plainly: Herbicidal activity against Amaranthus retroflexus assessed as inhibition of weed growth at 750 g/ha using postemergence treatment protocol. The settings on record: post-emergence.
Assay [3] concerns Digitaria sanguinalis. Put plainly: Herbicidal activity against Digitaria sanguinalis (hairy crabgrass) assessed as inhibition of weed growth at 1.5 kg/ha using post-emergence treatment protocol.
The subject of assay [4] is Amaranthus retroflexus. Kind of assay: Herbicidal activity against Amaranthus retroflexus assessed as inhibition of weed growth at 1.5 kg/ha using postemergence treatment protocol. The note with it: post-emergence.
Assay [5] concerns Brassica napus. Kind of assay: Herbicidal activity against Brassica napus (oilseed rape) assessed as inhibition of weed growth at 375 g/ha using postemergence treatment protocol. The note with it: post-emergence.
Assay [6] relates to Brassica napus. Put plainly: Herbicidal activity against Brassica napus (oilseed rape) assessed as inhibition of weed growth at 750 g/ha using postemergence treatment protocol. The note with it: post-emergence.
For assay [7], the system named is Digitaria sanguinalis. Put plainly: Herbicidal activity against Digitaria sanguinalis (hairy crabgrass) assessed as inhibition of weed growth at 1.5 kg/ha using pre-emergence treatment protocol.
Assay [8] relates to Echinochloa crus-galli. Kind of assay: Herbicidal activity against Echinochloa crus-galli (barnyard grass) assessed as inhibition of weed growth at 1.5 kg/ha using preemergence treatment protocol. The settings on record: pre-emergence.
Assay [9] has as its system Amaranthus retroflexus. Put plainly: Herbicidal activity against Amaranthus retroflexus assessed as inhibition of weed growth at 1.5 kg/ha using preemergence treatment protocol. The note with it: pre-emergence.
Assay [10] concerns Brassica napus. Kind of assay: Herbicidal activity against Brassica napus (oilseed rape) assessed as inhibition of weed growth at 1.5 kg/ha using postemergence treatment protocol. The settings on record: post-emergence.
The subject of assay [11] is Echinochloa crus-galli. Kind of assay: Herbicidal activity against Echinochloa crus-galli (barnyard grass) assessed as inhibition of weed growth at 1.5 kg/ha using postemergence treatment protocol. The note with it: post-emergence.
In assay [12] the test system is Amaranthus retroflexus. Kind of assay: Herbicidal activity against Amaranthus retroflexus assessed as inhibition of weed growth at 75 g/ha using postemergence treatment protocol. The note with it: post-emergence.
Assay [13] relates to Amaranthus retroflexus. Kind of assay: Herbicidal activity against Amaranthus retroflexus assessed as inhibition of weed growth at 150 g/ha using postemergence treatment protocol. The settings on record: post-emergence.
Assay [14] concerns Brassica napus. Put plainly: Herbicidal activity against Brassica napus (oilseed rape) assessed as inhibition of weed growth at 75 g/ha using postemergence treatment protocol. The settings on record: post-emergence.
In assay [15] the test system is Brassica napus. Put plainly: Herbicidal activity against Brassica napus (oilseed rape) assessed as inhibition of weed growth at 150 g/ha using postemergence treatment protocol. The note with it: post-emergence.
The subject of assay [16] is Brassica napus. Put plainly: Herbicidal activity against Brassica napus (oilseed rape) assessed as inhibition of weed growth at 1.5 kg/ha using preemergence treatment protocol. The settings on record: pre-emergence.

One may read the inhibition as how much of the control response was suppressed. For `CCOCCOC(=O)/C(C#N)=C(\NCc1cc(C(C)C)no1)SC`, the inhibition at 375 g/ha with Amaranthus retroflexus [1] was found to be 0%; in the assay on Brassica napus [5] it was 52.3%. The inhibition at 750 g/ha in the assay with Amaranthus retroflexus [2] turned out to be 37.6%; in the assay on Brassica napus [6] it was 76.9%. In addition, the inhibition at 1500 g/ha in the assay on Digitaria sanguinalis [3] is 48.4%; with Amaranthus retroflexus [4], 94%; in the assay with Digitaria sanguinalis [7] it was 0%; in the assay on Echinochloa crus-galli [8] it was 0%; in the assay with Amaranthus retroflexus [9], 25%; in the assay with Brassica napus [10], 100%. Further, in the assay with Echinochloa crus-galli [11], the inhibition at 1500 g/ha was 32.6%.

For the compound `CCOCCOC(=O)/C(C#N)=C(\NCc1cc(C(C)C)no1)C(C)C`, the inhibition at 75 g/ha was 0% in the assay on Amaranthus retroflexus [12] and 52% in the assay on Brassica napus [14]. Moreover, the inhibition at 150 g/ha with Amaranthus retroflexus [13] was determined as 0%; in the assay on Brassica napus [15], 92.8%. In addition, the inhibition at 375 g/ha in the assay on Amaranthus retroflexus [1] is 54.6%; in the assay on Brassica napus [5] it was 97.7%. Further, the inhibition at 750 g/ha in the assay with Amaranthus retroflexus [2] and with Brassica napus [6] was 100% throughout. Further, the inhibition at 1500 g/ha amounted to 48.4% in the assay with Digitaria sanguinalis [3]; 100% in the assay with Amaranthus retroflexus [4]; 0% in the assay with Digitaria sanguinalis [7]; 5% with Echinochloa crus-galli [8]; 100% in the assay with Amaranthus retroflexus [9]; 100% in the assay on Brassica napus [10]. Further, in the assay on Echinochloa crus-galli [11], the inhibition at 1500 g/ha came out at 12.5%.

Regarding `CCOCCOC(=O)/C(C#N)=C(\NCc1cc(Br)no1)SC`, the values for the inhibition at 375 g/ha in the assay with Amaranthus retroflexus [1] and in the assay on Brassica napus [5] were 0% and 87%, respectively. Also, the inhibition at 750 g/ha in the assay with Amaranthus retroflexus [2] was 0%; in the assay with Brassica napus [6] it was 93%. Further, the inhibition at 1500 g/ha worked out at 55.3% in the assay on Digitaria sanguinalis [3]; 99.1% with Amaranthus retroflexus [4]; 0% in the assay on Digitaria sanguinalis [7]; 2.4% in the assay on Echinochloa crus-galli [8]; 0% in the assay with Amaranthus retroflexus [9]; 100% in the assay on Brassica napus [10]. In addition, in the assay on Echinochloa crus-galli [11], the inhibition at 1500 g/ha worked out at 36.8%.

Take `CCOCCOC(=O)/C(C#N)=C(\NCc1cc(Br)no1)C(C)C`: the inhibition at 75 g/ha with Amaranthus retroflexus [12] was determined as 46.5%; in the assay on Brassica napus [14] it was 100%. Besides, the inhibition at 150 g/ha in the assay on Amaranthus retroflexus [13] is 90%; with Brassica napus [15], 100%. Further, the inhibition at 375 g/ha in the assay with Amaranthus retroflexus [1] and with Brassica napus [5] was 100% throughout. The inhibition at 750 g/ha in the assay on Amaranthus retroflexus [2] and in the assay with Brassica napus [6] was 100% in each case. In addition, the inhibition at 1500 g/ha was 42.1% with Digitaria sanguinalis [3]; 100% in the assay with Amaranthus retroflexus [4]; 0% in the assay on Digitaria sanguinalis [7]; 22.6% in the assay with Echinochloa crus-galli [8]; 60% with Amaranthus retroflexus [9]; 100% with Brassica napus [10]. Moreover, in the assay with Echinochloa crus-galli [11], the inhibition at 1500 g/ha stood at 66.5%.

In the case of `CCOCCOC(=O)/C(C#N)=C(\NCc1cc(-c2ccc(C(C)(C)C)cc2)no1)SC`, the inhibition at 375 g/ha in the assay on Amaranthus retroflexus [1] was 28.3%; in the assay on Brassica napus [5], 9.8%. Also, the inhibition at 750 g/ha with Amaranthus retroflexus [2] turned out to be 45.7%; in the assay with Brassica napus [6], 22.2%. The inhibition at 1500 g/ha in the assay on Digitaria sanguinalis [3] worked out at 55.8%; with Amaranthus retroflexus [4] it was 100%; in the assay with Brassica napus [16] it was 0%; in the assay on Digitaria sanguinalis [7], 0%; in the assay on Echinochloa crus-galli [8] it was 0%; with Amaranthus retroflexus [9], 10%. Also, the figures for the inhibition at 1500 g/ha in the assay with Brassica napus [10] and in the assay with Echinochloa crus-galli [11] were 100% and 0%, respectively.

Take `CCOCCOC(=O)/C(C#N)=C(\NCc1cc(-c2ccc(C(C)(C)C)cc2)no1)C(C)C`: the inhibition at 375 g/ha with Amaranthus retroflexus [1] came out at 54.3%; in the assay on Brassica napus [5], 41.7%. The inhibition at 750 g/ha in the assay with Amaranthus retroflexus [2] is 89.1%; in the assay on Brassica napus [6] it was 85.8%. For the same compound, the inhibition at 1500 g/ha with Digitaria sanguinalis [3] was 24.7%; in the assay with Amaranthus retroflexus [4] it was 100%; with Brassica napus [16], 0%; with Digitaria sanguinalis [7], 0%; in the assay with Echinochloa crus-galli [8] it was 0%; in the assay with Amaranthus retroflexus [9], 0%. For the same compound, the inhibition at 1500 g/ha with Brassica napus [10] was determined as 100%; in the assay with Echinochloa crus-galli [11] it was 0%.

With `CCOCCOC(=O)/C(C#N)=C(\NCc1cc(-c2ccc(Cl)cc2Cl)no1)SC`, the inhibition at 375 g/ha in the assay with Amaranthus retroflexus [1] and with Brassica napus [5] was 0% in each case. Besides, the inhibition at 750 g/ha with Amaranthus retroflexus [2] was 46%; with Brassica napus [6], 0%. In addition, the inhibition at 1500 g/ha in the assay on Digitaria sanguinalis [3] turned out to be 64.1%; with Amaranthus retroflexus [4], 89.9%; with Brassica napus [16], 45%; with Digitaria sanguinalis [7], 15.6%; in the assay with Echinochloa crus-galli [8] it was 0%; in the assay with Amaranthus retroflexus [9], 65.8%. The inhibition at 1500 g/ha in the assay with Brassica napus [10] was 100%; in the assay with Echinochloa crus-galli [11], 45.2%.

Regarding `CCOCCOC(=O)/C(C#N)=C(\NCc1cc(-c2ccccc2OC)no1)SC`, the inhibition at 375 g/ha in the assay on Amaranthus retroflexus [1] stood at 0%; with Brassica napus [5] it was 15.8%. Moreover, the inhibition at 750 g/ha amounted to 16% in the assay on Amaranthus retroflexus [2] and 43.8% with Brassica napus [6]. Moreover, the inhibition at 1500 g/ha with Digitaria sanguinalis [3] was found to be 52.3%; in the assay with Amaranthus retroflexus [4] it was 90.6%; with Brassica napus [16], 19%; in the assay on Digitaria sanguinalis [7], 17.3%; in the assay with Echinochloa crus-galli [8] it was 0%; in the assay with Amaranthus retroflexus [9] it was 47.8%. Moreover, the inhibition at 1500 g/ha was 100% with Brassica napus [10] and 52% in the assay on Echinochloa crus-galli [11].

Regarding `CCOCCOC(=O)/C(C#N)=C(\NCc1cc(-c2ccc(OC)cc2)no1)SC`, the inhibition at 375 g/ha with Amaranthus retroflexus [1] worked out at 34.8%; in the assay on Brassica napus [5], 57.5%. The results for the inhibition at 750 g/ha in the assay on Amaranthus retroflexus [2] and with Brassica napus [6] were 87% and 94.6%, respectively. In addition, the inhibition at 1500 g/ha in the assay with Digitaria sanguinalis [3] was 32.5%; with Amaranthus retroflexus [4], 100%; in the assay on Brassica napus [16], 10%; in the assay on Digitaria sanguinalis [7] it was 0%; with Echinochloa crus-galli [8], 0%; in the assay on Amaranthus retroflexus [9], 0%. For the same compound, the values for the inhibition at 1500 g/ha in the assay with Brassica napus [10] and with Echinochloa crus-galli [11] were 100% and 0%, respectively.

On to `CCOCCOC(=O)/C(C#N)=C(\NCc1cc(-c2ccc(Cl)cc2)no1)SC`, for which the inhibition at 375 g/ha with Amaranthus retroflexus [1] was found to be 4%; with Brassica napus [5] it was 0%. Further, the inhibition at 750 g/ha in the assay on Amaranthus retroflexus [2] turned out to be 22%; in the assay on Brassica napus [6] it was 0%. The inhibition at 1500 g/ha worked out at 72.7% with Digitaria sanguinalis [3]; 89.9% in the assay on Amaranthus retroflexus [4]; 28.4% in the assay on Brassica napus [16]; 14.8% in the assay on Digitaria sanguinalis [7]; 0% with Echinochloa crus-galli [8]; 23.1% with Amaranthus retroflexus [9]. The figures for the inhibition at 1500 g/ha in the assay on Brassica napus [10] and in the assay on Echinochloa crus-galli [11] were 100% and 58.2%, respectively.

Regarding `CCOCCOC(=O)/C(C#N)=C(\NCc1cc(-c2ccccc2)no1)SC`, the results for the inhibition at 375 g/ha in the assay with Amaranthus retroflexus [1] and with Brassica napus [5] were 7% and 17.8%, respectively. The inhibition at 750 g/ha in the assay with Amaranthus retroflexus [2] stood at 34%; in the assay with Brassica napus [6], 100%. Also, the inhibition at 1500 g/ha is 55.5% in the assay with Digitaria sanguinalis [3]; 100% in the assay on Amaranthus retroflexus [4]; 15.8% with Brassica napus [16]; 0% in the assay on Digitaria sanguinalis [7]; 0% with Echinochloa crus-galli [8]; 67.7% with Amaranthus retroflexus [9]. Moreover, the figures for the inhibition at 1500 g/ha with Brassica napus [10] and in the assay with Echinochloa crus-galli [11] were 100% and 57%, respectively.

(Values after ChEMBL document CHEMBL3046355, “Design, synthesis, and herbicidal activities of novel 2-cyanoacrylates containing isoxazole moieties” (2010).)
